Experimental findings from ChEMBL document CHEMBL1201862, “PubChem BioAssay data set” (2004) are described below.

Among the test systems are NCI-H460; OVCAR-4; SK-MEL-28; U-251; M14; CAKI-1; SF-268; SF-295; OVCAR-8; Malme-3M; HCT-116; SK-OV-3; EKVX; MOLT-4; NCI-H23; ACHN; UACC-62; NCI-H226; UO-31; HCT-15.
What all share (assay): NCI anticancer screen, dose series, 48 h

The structures appear in SMILES notation.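 Cultured in 96-well plates, cells were exposed to test compound for 48 hours across five concentrations. The concentration for 50% growth inhibition is given as GI50.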 Activity calls are given as the source filed them. No stated cut-off is given here; in the data, active = GI50 up to about 1.1 µM and inactive = higher.

Consider `COc1ccc(C2C(N)=NCC2c2ccccn2)cc1` (stereo unspecified), for which the GI50 in the assay on NCI-H460, in the assay on OVCAR-4, with SK-MEL-28, in the assay on U-251, in the assay on M14 and with CAKI-1 was > 100 µM (inactive) in each case. The GI50 in the assay on SF-268, with SF-295, in the assay with OVCAR-8, in the assay on Malme-3M, in the assay with HCT-116 and with SK-OV-3 was > 100 µM (inactive) in each case. Besides, the GI50 with EKVX, in the assay with MOLT-4, in the assay on NCI-H23, in the assay with ACHN, with UACC-62 and with NCI-H226 was > 100 µM (inactive) each time. In the assay with UO-31, the GI50 was > 100 µM (inactive).

In the case of `Cc1c(N2C(=O)CS(=O)(=O)C2c2cccc(Oc3ccccc3)c2)c(=O)n(-c2ccccc2)n1C` (stereo unspecified), the GI50 is 37.2 µM (inactive) with NCI-H460; 14.6 µM (inactive) in the assay with OVCAR-4; 61.5 µM in the assay with HCT-15; > 100 µM (inactive) with SK-MEL-28; > 100 µM (inactive) in the assay on U-251; 23.7 µM (inactive) in the assay with M14. The GI50 in the assay with CAKI-1 was 42.3 µM (inactive); in the assay on SF-268, 59.3 µM (inactive); with SF-295, 84.9 µM (inactive); with OVCAR-8, 57.3 µM (inactive); in the assay on Malme-3M, 0.512 µM (active); in the assay with HCT-116, 26.7 µM (inactive). Besides, the GI50 is 61.8 µM (inactive) in the assay on SK-OV-3; 46.7 µM (inactive) in the assay on EKVX; 20.5 µM (inactive) in the assay on MOLT-4; > 100 µM (inactive) in the assay on NCI-H23; > 100 µM (inactive) with ACHN; 66.2 µM (inactive) in the assay with UACC-62. Moreover, the values for the GI50 in the assay on NCI-H226 and in the assay on UO-31 were 42.6 µM (inactive) and 62.7 µM (inactive), respectively.

Consider `NC(=S)N/N=C1\C(=O)Nc2c(Cl)cc(Cl)cc21`, for which the GI50 with NCI-H460 was 17.1 µM (inactive); with OVCAR-4, 34 µM (inactive); with HCT-15, 24.8 µM; with SK-MEL-28, 15 µM (inactive); in the assay on U-251 it was 19.5 µM (inactive); in the assay with M14, 17.2 µM (inactive). Besides, the GI50 was 41.2 µM (inactive) in the assay with CAKI-1; 19.2 µM (inactive) in the assay with SF-295; 18.1 µM (inactive) with OVCAR-8; 16.2 µM (inactive) with Malme-3M; 17.9 µM (inactive) with HCT-116; 41.9 µM (inactive) with SK-OV-3. For the same molecule, the GI50 in the assay with EKVX was 20.3 µM (inactive); with MOLT-4, 14 µM (inactive); in the assay on NCI-H23, 37.6 µM (inactive); in the assay with ACHN, 37.4 µM (inactive); with UACC-62, 17.3 µM (inactive); in the assay on NCI-H226, 15.7 µM (inactive). In addition, the GI50 in the assay on UO-31 is 28.1 µM (inactive).

`CC12CC3(C)CC(C)(C1)CC(N=[N+]=[N-])(C2)C3`: the GI50 with NCI-H460, in the assay with OVCAR-4, with SK-MEL-28, with U-251, with M14 and in the assay on CAKI-1 was > 100 µM (inactive) each time. The GI50 with SF-268, with SF-295, in the assay with OVCAR-8, in the assay on Malme-3M, with HCT-116 and in the assay with SK-OV-3 was > 100 µM (inactive) each time. Moreover, the GI50 in the assay with EKVX, in the assay on MOLT-4, in the assay on NCI-H23, with ACHN, with UACC-62 and with NCI-H226 was > 100 µM (inactive) in each case. Also, the GI50 in the assay with UO-31 was > 100 µM (inactive).

Regarding `S=c1nc(Nc2ccc(Br)cc2)c2c3c(sc2[nH]1)CN(N1CCc2c(sc4[nH]c(=S)nc(Nc5ccc(Br)cc5)c24)C1)CC3`, the GI50 in the assay on NCI-H460 was 23.8 µM (inactive); in the assay with OVCAR-4, 30.2 µM (inactive); in the assay on HCT-15, 22.5 µM; with SK-MEL-28, 11.6 µM (inactive); with U-251 it was 9.42 µM (inactive); in the assay on M14, 8.36 µM (inactive). Moreover, the GI50 in the assay with CAKI-1 was > 50 µM (inactive); in the assay on SF-268, 33.7 µM (inactive); in the assay on SF-295 it was 19.1 µM (inactive); with OVCAR-8 it was > 50 µM (inactive); in the assay with Malme-3M it was 44.1 µM (inactive); in the assay with HCT-116 it was 12.3 µM (inactive). The GI50 is > 50 µM (inactive) in the assay with SK-OV-3; 35.2 µM (inactive) with EKVX; 12.8 µM (inactive) in the assay with MOLT-4; 24 µM (inactive) in the assay on NCI-H23; 21.1 µM (inactive) in the assay with ACHN; 15.1 µM (inactive) in the assay on UACC-62. Further, the GI50 in the assay on NCI-H226 was 20.8 µM (inactive); in the assay with UO-31 it was 20.1 µM (inactive).

Take `S=c1sc2cscc2s1`: the GI50 is 24.1 µM (inactive) in the assay with NCI-H460; 16.4 µM (inactive) in the assay with OVCAR-4; 34 µM in the assay with HCT-15; 21.9 µM (inactive) with SK-MEL-28; 53.2 µM (inactive) in the assay with U-251; 19.1 µM (inactive) with M14. Further, the GI50 was 16.8 µM (inactive) with CAKI-1; 31.4 µM (inactive) in the assay on SF-268; 54.1 µM (inactive) in the assay on SF-295; 21.7 µM (inactive) with OVCAR-8; 12.6 µM (inactive) in the assay with Malme-3M; 19.5 µM (inactive) in the assay on HCT-116. The GI50 in the assay with SK-OV-3 was 27.5 µM (inactive); in the assay with EKVX it was 19.5 µM (inactive); with MOLT-4 it was 34.4 µM (inactive); in the assay with NCI-H23, 28.8 µM (inactive); in the assay on ACHN, 19.4 µM (inactive); in the assay on UACC-62 it was 18.2 µM (inactive). Besides, the GI50 with NCI-H226 is 15.5 µM (inactive); in the assay on UO-31 it was 19.1 µM (inactive).

Consider `CO/N=C1/c2sccc2[C@H](NC(=O)CNC(=O)OC(C)(C)C)[C@@H]1O`, for which the GI50 in the assay on NCI-H460 is > 100 µM (inactive); with OVCAR-4, > 100 µM (inactive); in the assay on HCT-15 it was greater than 100 µM; with SK-MEL-28 it was > 100 µM (inactive); in the assay with U-251, > 100 µM (inactive); with M14, > 100 µM (inactive). The GI50 with CAKI-1, in the assay with SF-268, in the assay with SF-295, in the assay on OVCAR-8, in the assay with Malme-3M and in the assay with HCT-116 was > 100 µM (inactive) in each case. In addition, the GI50 in the assay with SK-OV-3, in the assay with EKVX, in the assay with MOLT-4, with NCI-H23, in the assay with UACC-62 and in the assay with NCI-H226 was > 100 µM (inactive) throughout. In the assay on UO-31, the GI50 was > 100 µM (inactive).

Take `O=C(Nc1nc2ncn(CCNCc3ccccc3)c2c(=O)[nH]1)c1ccccc1`: the GI50 in the assay with NCI-H460 is > 100 µM (inactive); in the assay on OVCAR-4, > 100 µM (inactive); in the assay on HCT-15 it was greater than 100 µM; with SK-MEL-28, > 100 µM (inactive); with U-251 it was > 100 µM (inactive); with M14 it was > 100 µM (inactive). For the same molecule, the GI50 is > 100 µM (inactive) in the assay with CAKI-1; 63.8 µM (inactive) in the assay on SF-268; > 100 µM (inactive) in the assay with SF-295; > 100 µM (inactive) with OVCAR-8; > 100 µM (inactive) with Malme-3M; > 100 µM (inactive) with HCT-116. The GI50 with SK-OV-3 is > 100 µM (inactive); with EKVX, > 100 µM (inactive); with ACHN, > 100 µM (inactive); in the assay with UACC-62, > 100 µM (inactive); in the assay on NCI-H226 it was > 100 µM (inactive); in the assay with UO-31, 50.8 µM (inactive).

For `O=C1Nc2ccccc2Nc2ccncc21`, the GI50 is > 100 µM (inactive) with NCI-H460; > 100 µM (inactive) with OVCAR-4; greater than 100 µM in the assay with HCT-15; > 100 µM (inactive) in the assay with SK-MEL-28; > 100 µM (inactive) in the assay with U-251; > 100 µM (inactive) in the assay on CAKI-1. Further, the GI50 in the assay on SF-268, in the assay with SF-295, with OVCAR-8, with Malme-3M, with HCT-116 and in the assay with SK-OV-3 was > 100 µM (inactive) in each case. Also, the GI50 with EKVX, in the assay with MOLT-4, with NCI-H23, in the assay with UACC-62, with NCI-H226 and with UO-31 was > 100 µM (inactive) throughout.

`O=C1C(c2ccc(C3=[N+]([O-])c4cc([N+](=O)[O-])ccc4C3=O)cc2)=[N+]([O-])c2cc([N+](=O)[O-])ccc21`: the GI50 with NCI-H460 was > 10 µM (inactive); in the assay with OVCAR-4, > 10 µM (inactive); in the assay with HCT-15 it was greater than 10 µM; with SK-MEL-28 it was > 10 µM (inactive); in the assay with U-251, > 10 µM (inactive); in the assay on M14 it was > 10 µM (inactive). The GI50 with CAKI-1, in the assay on SF-295, in the assay with OVCAR-8, with Malme-3M, with HCT-116 and in the assay with SK-OV-3 was > 10 µM (inactive) throughout. The GI50 with EKVX, in the assay on MOLT-4, in the assay with NCI-H23, with ACHN, in the assay on UACC-62 and with NCI-H226 was > 10 µM (inactive) throughout. The GI50 in the assay on UO-31 is > 10 µM (inactive).
